The values below come from patent US20230271949A1, “GLP-1R MODULATING COMPOUNDS” (ASCLETIS BIOSCIENCE CO., LTD., priority 2022, published 2023).

pEC50: −log10 of the molar value. Some results are limits rather than exact numbers.

GLP-1R, sequence (P43220 24-463): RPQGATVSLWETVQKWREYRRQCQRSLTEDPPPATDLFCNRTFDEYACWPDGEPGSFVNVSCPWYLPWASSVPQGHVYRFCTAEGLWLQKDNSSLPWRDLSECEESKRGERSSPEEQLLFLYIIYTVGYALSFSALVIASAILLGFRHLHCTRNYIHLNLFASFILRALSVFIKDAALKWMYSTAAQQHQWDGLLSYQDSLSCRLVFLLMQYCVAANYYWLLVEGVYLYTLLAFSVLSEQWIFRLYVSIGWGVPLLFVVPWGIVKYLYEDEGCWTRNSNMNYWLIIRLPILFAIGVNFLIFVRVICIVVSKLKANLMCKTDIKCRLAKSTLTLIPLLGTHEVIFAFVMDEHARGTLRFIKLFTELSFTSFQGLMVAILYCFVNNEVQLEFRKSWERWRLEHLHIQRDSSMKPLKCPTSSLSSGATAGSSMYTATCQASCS

The assay addresses GLP-1R (Homo sapiens, UniProt P43220). The assay is described as follows: GLP-1R agonist cAMP stimulation assay (HTRF cAMP). It counts as cell-based. The conditions noted are these: HEK293 cell line expressing GLP-1 target; HTRF cAMP agonist mode, 30 min at RT. The essentials:
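Read-out was HTRF (665/615 ratio), interpolated onto a cAMP standard curve and normalised to DMSO (0%) and maximal GLP-1(7-37) reference (100%) wells. Assay: GLP-1R cells at 1.0×E5/mL incubated with compound dilution series (3-fold, 10 points) for 30 min at room temperature before 60 min detection.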
In turn, `Cc1cc(C(=O)Nc2ccc3c(c2)nc(CN2CC=C(c4cccc5c4OC(C)(c4ccc(Cl)cc4F)O5)CC2)n3C[C@@H]2CCO2)cc2c1NC(=O)C21CC1` (stereo partly shown) [Compound 307] had a pEC50 of 9.68.

`Cc1cc2c(C#N)ccc(COc3cccc(C4=CCN(Cc5nc6cc(C(=O)Nc7cc(F)c8[nH]nc(C)c8c7)ccc6n5C[C@@H]5CCO5)CC4)n3)c2o1` [Compound 353] gave a pEC50 of 9.36.

As to `Cc1n[nH]c2c(Cl)cc(C(=O)Nc3ccc4c(c3)nc(C3CC35CCN(c3cccc(OCc6ccc(Cl)cc6F)n3)CC5)n4CC3CCO3)cc12` (stereo not shown) [Compound 248], the pEC50 was 8.89.

`C[C@H](NC(=O)c1ccc2c(c1)nc(CN1CCC(c3cccc(OCc4ccc(Cl)cc4F)n3)CC1)n2C[C@@H]1CCO1)C(=O)N1CC(F)(F)C[C@H]1C(=O)O` [Compound 66] had a pEC50 of 8.85.

For the compound `Cc1n[nH]c2c(C(F)(F)F)cc(NC(=O)c3ccc4c(c3)nc(CN3CCC(c5cccc6c5OC(C)(c5ccc(Cl)cc5F)O6)CC3)n4CC3CCO3)cc12` (stereo not shown) [Compound 331], the pEC50 was 8.90.

Compound `Cc1cc(C(=O)Nc2ccc3c(c2)nc(CN2CC=C(c4cccc(OCc5ccc(Cl)cc5F)n4)CC2)n3C[C@@H]2CCO2)cc2c(C3CC3)n[nH]c12` [Compound 218] showed a negative logarithm of the EC50 (pEC50) of 8.79.

`N#Cc1ccc(COc2cccc(C3=CCN(Cc4nc5cc(C(=O)Nc6ccc7[nH]nc(C(F)(F)F)c7c6)ccc5n4C[C@@H]4CCO4)CC3)n2)c(F)c1` [Compound 184] had a pEC50 of 8.80.

Turning to `Cc1cc(NC(=O)c2ccc3c(c2)nc(CN2CCC(c4cccc(OCc5ccc(Cl)cc5F)n4)CC2)n3C[C@@H]2CCO2)c(C)c2c(C)n[nH]c12` [Compound 120], the pEC50 is 7.81.

`CC(C)c1n[nH]c2ccc(C(=O)Nc3ccc4c(c3)nc(CN3CC=C(c5cccc(OCc6ccc(Cl)cc6F)n5)CC3)n4C[C@@H]3CCO3)cc12` [Compound 200] had a pEC50 of 9.09.

In turn, `Cc1n[nH]c2cc(F)c(C(=O)Nc3ccc4c(c3)nc(CN3CC=C(c5cccc(OCc6ccc(Cl)cc6F)n5)CC3)n4C[C@@H]3CCO3)cc12` [Compound 221] had a pEC50 of 8.67.

Compound `CNS(=O)(=O)Cc1ccc2[nH]cc(CCNC(=O)c3ccc4c(c3)nc(CN3CCC(c5cccc(OCc6ccc(Cl)cc6F)n5)CC3)n4CCOC)c2c1` [Compound 39] had a pEC50 of 6.54.

Take `O=C(Nc1ccc2nc(CN3CC=C(c4cccc(OCc5ccc(Cl)cc5F)n4)CC3)n(C[C@@H]3CCO3)c2c1)c1cc(C(F)(F)F)c2c(c1)C1(CC1)C(=O)N2` [Compound 288]: the negative logarithm of the EC50 (pEC50) is 8.41.

In the case of `O=C(Nc1ccc2[nH]c(=O)[nH]c2c1)c1ccc2nc(CN3CC=C(c4cccc(OCc5ccc(Cl)cc5F)n4)CC3)n(C[C@@H]3CCO3)c2c1` [Compound 270], the pEC50 is 8.99.

In turn, `Cc1n[nH]c2c(Cl)cc(C(=O)Nc3ccc4c(c3)nc(CN3CC=C(c5cccc6c5OC(C)(c5ccc(Cl)cc5F)O6)CC3)n4CC3CCO3)cc12` (stereo not shown) [Compound 308] gave a pEC50 of 8.51.

For `Cc1cc2c(C#N)ccc(COc3cccc(C4=CCN(Cc5nc6cc(NC(=O)c7ccc8[nH]nc(C)c8c7)ccc6n5C[C@@H]5CCO5)CC4)n3)c2o1` [Compound 358], the pEC50 was 9.01.

`O=C(Nc1cc(F)c2c(c1)C1(CC1)C(=O)N2)c1ccc2c(c1)nc(CN1CCC(c3cccc(OCc4ccc(Cl)cc4F)n3)CC1)n2C[C@@H]1CCO1` [Compound 104] had a pEC50 of 8.98.

`Cc1n[nH]c2ccc(NC(=O)c3ccc4nc(CN5CC=C(c6cccc(OCc7ccc(C#N)cc7F)n6)CC5)n(CC5CCO5)c4c3)cc12` (stereo not shown) [Compound 275]: the pEC50 is 8.21.

Regarding `O=C(Nc1ccc2nc(CN3CC=C(c4cccc(OCc5ccc(Cl)cc5F)n4)CC3)n(C[C@@H]3CCO3)c2c1)c1cc(F)c2c(c1)C1(CC1)C(=O)N2` [Compound 286], the pEC50 is 9.68.

Turning to `CCc1cc(NC(=O)c2ccc3c(c2)nc(CN2CCC(c4cccc(OCc5ccc(Cl)cc5F)n4)CC2)n3C[C@@H]2CCO2)cc2c(C)n[nH]c12` [Compound 117], the negative-log EC50 (pEC50) is 7.99.

On to `COCCn1c(CN2CCC(c3cccc(OCc4ccc(Cl)cc4F)n3)CC2)nc2cc(C(=O)Nc3ccc(O)cc3)ccc21` [Compound 75], for which the pEC50 was less than 5.00.

Take `Cc1n[nH]c2c(F)cc(NC(=O)c3ccc4c(c3)nc(CN3CC=C(c5cccc(OCc6ccc(C#N)cc6F)n5)CC3)n4C[C@@H]3CCO3)cc12` [Compound 177]: the pEC50 is 9.64.

In turn, `Cc1n[nH]c2ccc(C(=O)Nc3ccc4c(c3)nc(Cc3ccc(-c5cccc6c5OC(C)(c5ccc(Cl)cc5F)O6)s3)n4C[C@@H]3CCO3)cc12` (stereo partly shown) [Compound 322] gave a pEC50 of 7.50.

As for `Cc1n[nH]c2c(C(F)(F)F)cc(NC(=O)c3ccc4c(c3)nc(CN3CC=C(c5cccc6c5O[C@@](C)(c5ccc(Cl)cc5F)O6)CC3)n4CC3CCO3)cc12` (stereo partly shown) [Compound 388], the pEC50 was 9.09.

`O=C(Nc1cc(C(F)(F)F)c2[nH]ncc2c1)c1ccc2c(c1)nc(CN1CCC(c3cccc(OCc4ccc(Cl)cc4F)n3)CC1)n2C[C@@H]1CCO1` [Compound 108] showed a pEC50 of 8.62.

Turning to `O=C(Nc1nc2[nH]cnc2s1)c1ccc2c(c1)nc(CN1CC=C(c3cccc(OCc4ccc(Cl)cc4F)n3)CC1)n2C[C@@H]1CCO1` [Compound 403], the pEC50 was 7.63.

`Cc1cc(C(=O)Nc2ccc3c(c2)nc(CN2CCC(c4cccc5c4OC(C)(c4ccc(Cl)cc4F)O5)CC2)n3C[C@@H]2CCO2)cc2c1NC(=O)C21CC1` (stereo partly shown) [Compound 343] showed a pEC50 of 9.27.

On to `O=C(Nc1cc(C(F)(F)F)c2c(c1)C1(CC1)C(=O)N2)c1ccc2nc(CN3CC=C(c4cccc(OCc5ccc(Cl)cc5F)n4)CC3)n(C[C@@H]3CCO3)c2c1` [Compound 273], for which the pEC50 was 8.56.

Compound `Cc1n[nH]c2c(C(F)(F)F)cc(NC(=O)c3ccc4nc(CN5CC=C(c6cccc(OCc7ccc(Cl)cc7F)n6)CC5)n(CC5CCO5)c4c3)cc12` (stereo not shown) [Compound 272] showed a pEC50 of 8.49.

`N#Cc1ccc(COc2cccc(C3CCN(Cc4nc5cc(C(=O)NCC(=O)N6C[C@@H](O)C[C@H]6C(=O)O)ccc5n4C[C@@H]4CCO4)CC3)n2)c(F)c1` [Compound 56] had a negative logarithm of the EC50 (pEC50) of 9.01.

Take `Cc1c(C#N)sc(COc2cccc(C3=CCN(Cc4nc5cc(NC(=O)c6ccc7[nH]nc(C)c7c6)ccc5n4C[C@@H]4CCO4)CC3)n2)c1F` [Compound 361]: the pEC50 was 9.05.

`O=C(NCC(=O)N1CC[C@@H](O)C1)c1ccc2c(c1)nc(CN1CCC(c3cccc(OCc4ccc(Cl)cc4F)n3)CC1)n2C[C@@H]1CCO1` [Compound 77] gave a pEC50 of 8.72.

In the case of `Cc1cc2c(C#N)ccc(COc3cccc(C4CCN(Cc5nc6cc(NC(=O)c7cc(F)c8[nH]nc(C)c8c7)ccc6n5C[C@@H]5CCO5)CC4)n3)c2o1` [Compound 372], the pEC50 was 9.19.

As to `CC(C)c1n[nH]c2ccc(NC(=O)c3ccc4c(c3)nc(CN3CC=C(c5cccc(OCc6ccc(Cl)cc6F)n5)CC3)n4C[C@@H]3CCO3)cc12` [Compound 140], the pEC50 is 8.53.

Take `Fc1cc(Cl)ccc1COc1cccc(C2=CCN(Cc3nc4cc(-n5cnc(-c6ccn[nH]6)c5)ccc4n3C[C@@H]3CCO3)CC2)n1` [Compound 396]: the pEC50 is 6.84.

Compound `Cc1cc(NC(=O)c2ccc3c(c2)nc(CN2CCC(c4cccc5c4OC(C)(c4ccc(Cl)cc4F)O5)CC2)n3CC2CCO2)cc2c(C(F)(F)F)n[nH]c12` (stereo not shown) [Compound 332] gave a pEC50 of 8.80.

Compound `Cc1n[nH]c2c(Cl)cc(NC(=O)c3ccc4c(c3)nc(CN3CCC(c5cccc6c5OC(C)(c5ccc(Cl)cc5F)O6)CC3)n4CC3CCO3)cc12` (stereo not shown) [Compound 338] showed a pEC50 of 8.88.

`N#Cc1ccc(COc2cccc(C3=CCN(Cc4nc5cc(NC(=O)c6ccc7[nH]nc(C(F)(F)F)c7c6)ccc5n4C[C@@H]4CCO4)CC3)n2)c(F)c1` [Compound 232] had a pEC50 of 8.90.

`Cc1cc(C(=O)Nc2ccc3c(c2)nc(CN2CC=C(c4cccc(OCc5ccc(C#N)cc5F)n4)CC2)n3C[C@@H]2CCO2)cc2c(C(F)F)n[nH]c12` [Compound 228] showed a pEC50 of 8.90.

The compound `O=C(Nc1ccc2c(c1)C1(CC1)C(=O)N2)c1ccc2c(c1)nc(CN1CC=C(c3cccc(OCc4ccc(Cl)cc4F)n3)CC1)n2C[C@@H]1CCO1` [Compound 143] gave a pEC50 of 9.12.

The compound `Cc1cc(NC(=O)c2ccc3c(c2)nc(CN2CCC(c4cccc(OCc5ccc(Cl)cc5F)n4)CC2)n3C[C@@H]2CCO2)cc2c(C(F)F)n[nH]c12` [Compound 116] showed a pEC50 of 9.04.

In the case of `Cn1c(=O)[nH]c2ccc(NC(=O)c3ccc4c(c3)nc(CN3CC=C(c5cccc(OCc6ccc(Cl)cc6F)n5)CC3)n4C[C@@H]3CCO3)cc21` [Compound 146], the pEC50 was 7.62.

In turn, `O=C(Nc1ccn2nccc2c1)c1ccc2c(c1)nc(CN1CC=C(c3cccc(OCc4ccc(Cl)cc4F)n3)CC1)n2CC1CCO1` (stereo not shown) [Compound 148] gave a pEC50 of 7.68.

On to `Cc1n[nH]c2c(C(F)(F)F)cc(NC(=O)c3ccc4c(c3)nc(CN3CC=C(c5cccc6c5O[C@](C)(c5ccc(Cl)cc5F)O6)CC3)n4CC3CCO3)cc12` (stereo partly shown) [Compound 389], for which the pEC50 is 8.55.

`COCCn1c(CN2CCC(c3cccc(OCc4ccc(Cl)cc4F)n3)CC2)nc2cc(C(=O)NCCCn3ccnc3)ccc21` [Compound 16] showed a pEC50 of 6.84.

Regarding `O=C(Nc1cnn2[nH]ccc12)c1ccc2c(c1)nc(CN1CC=C(c3cccc(OCc4ccc(Cl)cc4F)n3)CC1)n2C[C@@H]1CCO1` [Compound 401], the pEC50 was 7.66.

`Cc1n[nH]c2ccc(C(=O)Nc3ccc4c(c3)nc(C(F)(F)N3CC=C(c5cccc(OCc6ccc(Cl)cc6F)n5)CC3)n4C[C@@H]3CCO3)cc12` [Compound 257] had a pEC50 of 7.82.

Compound `Cc1n[nH]c2c(C)cc(NC(=O)c3ccc4c(c3)nc(CN3CC=C(c5cccc(OCc6ccc(C#N)cc6F)n5)CC3)n4C[C@@H]3CCO3)cc12` [Compound 181] gave a pEC50 of 9.68.

`Cc1cc(NC(=O)c2ccc3nc(CN4CC=C(c5cccc(OCc6ccc(Cl)cc6F)n5)CC4)n(C[C@@H]4CCO4)c3c2)cc2c1NC(=O)C21CC1` [Compound 267] had a negative-log EC50 (pEC50) of 8.70.

As to `Cc1nn(C)c2ccc(NC(=O)c3ccc4c(c3)nc(CN3CC=C(c5cccc(OCc6ccc(Cl)cc6F)n5)CC3)n4C[C@@H]3CCO3)cc12` [Compound 159], the pEC50 was 8.01.
